Experimental findings from US20160193291A1, “METHOD OF REGULATING NEURONAL AXON ELONGATION” (RIKEN, priority 2012, published 2016) are described below.

What all share (format): cell-based, chick (Gallus gallus)
The test system of test [1] is growth cones of DRG neurons. Nature of the test: Growth cone collapse assay (growth cone surface area). On the procedure: Dissociated DRG neurons from embryonic day 7-9 chicks were cultured for at least 12 h in an F-12 medium (Invitrogen) containing 50 ng/ml NGF. […] Subsequently, the culture medium was changed to BSS buffer. […] In experiments using epoxomicin, the cells were treated with […] epoxomicin for 15 min before the addition of […] Sema3A.
The growth cone area was defined as a hand-like region extending from a distal part of a neurite to a growth cone neck whose width is equal to the width of the neurite. The width of each neurite was calculated by measuring the width of the neurite region at a location that was 30 μm apart from the distal part of each neurite. This calculation was adopted because the mean length of the control growth cone was less than 30 μm.

Test [2] has as its system Syx1B protein in growth cones. In words: Immunocytochemistry of Syx1B protein in growth cones. As to conditions: for protein level of Syx1B normalized to that of SNAP25 in the growth cones: 10 min treatment. On the procedure:
After Sema3A or vehicle treatment, the cells were fixed with 4% PFA for 1 h at 37° C., followed by permeabilization with 0.3% Triton X-100 in PBS for 2 min at a room temperature.
The cells were then immediately washed three times with a blocking solution (1% BSA and 0.1% Triton X-100 PBS), followed by incubation with the blocking solution for 1 h at a room temperature, and were then incubated in the presence of anti-Syx1B (0.5 μg/ml) and anti-synaptosomal-associated protein 25 (SNAP25) antibody (1:500 dilution, clone SM-81; Sternberger Monpclonals) for 2 h at a room temperature. Immunofluorescence signals were visualized by incubation with Alexa Fluor 488-labeled donkey anti-rabbit antibody (Invitrogen) and Alexa Fluor 594-labeled donkey anti-mouse antibody (Invitrogen). The integrated fluorescence intensity of Syx1B in the growth cones was normalized to that of the SNAP 25 protein.

For test [3], the system named is growth cones of primary culture DRG neurons. In words: Endocytosis of Alexa Fluor dextran (macropinocytosis) in growth cones.
For test [4], the system named is DRG neurons. Nature of the test: Neurite elongation (neurite length) of transfected DRG neurons. As to conditions: 15 min pretreatment with 10 μM EIPA.
[5] abbreviates: 15 min pretreatment with 10 μM EIPA.
[6] abbreviates: 15 min pretreatment with 100 μM EIPA.

Take `C/C1=C\[C@H](C)C[C@H](C)OC(=O)C[C@H](c2ccc(O)cc2)NC(=O)[C@@H](Cc2c(Br)[nH]c3ccccc23)N(C)C(=O)[C@H](C)NC(=O)[C@@H](C)C1` [jasplakinolide]: in test [1], the growth cone morphology entry is recorded as “induces growth cone collapse-like morphological changes”. In addition, in test [2], the “protein level of Syx1B normalized to that of SNAP25 in the growth cones” value is reported as “not decreased”.
For `O=c1cc(N2CCOCC2)oc2c(-c3ccccc3)cccc12` [LY294002, 2-(4-morpholinyl)-8-phenyl-1 (4H)-benzopyran-4-one], the “macropinocytosis in the growth cones” value in test [3] (10 min LY294002 treatment) was “induced macropinocytosis”. In addition, the growth cone area result in test [1] (10 min LY294002 treatment) is recorded as “induced reduction in growth cone area”. In addition, the “protein level of Syx1B normalized to that of SNAP25 in the growth cones” value in test [2] is “significantly reduced”.
As for `CCN(c1nc(N)c(C(=O)N=C(N)N)nc1Cl)C(C)C` [EIPA, 5-(N-ethyl-N-isopropyl)amiloride], in test [3] (setting [5]), the “effect on Sema3A-induced uptake of Alexa Flour 594-dextran” value is on record as “suppressed” and the “effect on Syx1B knockdown-mediated accumulation of Alexa Fluor 594-dextran” value is “reversed”. Also, the “effect on neurotoxin C1-induced uptake of Alexa Fluor 594-dextran” value in test [3] (setting [6]) is “blocked”. Further, in test [1] (setting [5]), the “effect on Sema3A-induced growth cone collapse” value is recorded as “suppressed” and the “effect on Syx1B knockdown-mediated growth cone collapse” value was “reversed”. Moreover, in test [1] (setting [6]), the “effect on neurotoxin C1-induced reduction in growth cone surface area” value is listed as “blocked”. The “effect on Syx1B knockdown-mediated reduced neurite elongation” value in test [4] is “reversed”.
In the case of `CC[C@H](C)[C@H](NC(=O)[C@H]([C@@H](C)CC)N(C)C(C)=O)C(=O)N[C@H](C(=O)N[C@@H](CC(C)C)C(=O)[C@@]1(C)CO1)[C@@H](C)O` [epoxomicin], the “effect on Sema3A-induced suppression of Syx1B” value in test [2] (1 μM epoxomicin) is “suppressed”.
